Among the test systems are NCI-H522 lung; SK-OV-3 ovarian; BT-549 breast; CAKI-1 renal; IGROV1 ovarian; MDA-MB-435; SNB-19 CNS; NCI/ADR-RES ovarian; RPMI-8226 leukemia; OVCAR-4 ovarian.
What all share (experiment): NCI anticancer screen, dose series, 48 h

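Dose response: 5 concentrations. Exposure: 48 h. Format: 96-well plates. Endpoint: linear interpolation; highest concentration if not reached. The concentration for 50% growth inhibition is given as GI50. TGI is the concentration that stops growth completely.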

Regarding `COC(=O)[C@]12CC[C@@H](C)[C@H](C)[C@@H]1C1=CC[C@@H]3[C@@]4(C)C(C=O)=C[C@@](C)(COC(C)=O)[C@@H]4[C@H](O)C[C@@]3(C)[C@]1(C)CC2`, the GI50 with NCI-H522 lung was 3.46 µM; in the test with SK-OV-3 ovarian, 4.35 µM; in the test with BT-549 breast, 2.03 µM; in the test on CAKI-1 renal it was 2.72 µM; in the test on IGROV1 ovarian, 2.95 µM; with MDA-MB-435 it was 2.09 µM. In addition, the GI50 with SNB-19 CNS was 3.22 µM; in the test with NCI/ADR-RES ovarian, 2.79 µM; in the test with RPMI-8226 leukemia it was 1.4 µM; with OVCAR-4 ovarian, 2.64 µM. Also, the TGI with NCI-H522 lung amounted to 8.83 µM; in the test with SK-OV-3 ovarian, 16.1 µM; in the test on BT-549 breast, 5.11 µM; with CAKI-1 renal, 12.3 µM; in the test with IGROV1 ovarian, 9.7 µM; with MDA-MB-435 it was 5.04 µM. For the same molecule, the TGI was found to be 14.8 µM with SNB-19 CNS, 9.73 µM with NCI/ADR-RES ovarian, 4.55 µM in the test on RPMI-8226 leukemia and 10.7 µM with OVCAR-4 ovarian.
For `COc1cc2c3c(n(CCCN4CCN(C)CC4)c(=O)c2cc1OC)-c1cc2c(cc1C3=O)OCO2`, the GI50 in the test with NCI-H522 lung is 15.4 µM; with SK-OV-3 ovarian, 12.3 µM; with BT-549 breast it was 80.8 µM; with CAKI-1 renal it was 10.3 µM; in the test with IGROV1 ovarian, 7.05 µM; in the test on MDA-MB-435, above 100 µM. Moreover, the GI50 with SNB-19 CNS is above 100 µM; with NCI/ADR-RES ovarian, 1.55 µM; in the test with RPMI-8226 leukemia, 2.39 µM; with OVCAR-4 ovarian it was 4.17 µM. Further, the TGI in the test with NCI-H522 lung was 45.4 µM; with SK-OV-3 ovarian, 34 µM; with BT-549 breast it was above 100 µM; in the test on CAKI-1 renal, 23.7 µM; in the test on IGROV1 ovarian it was 80.6 µM; in the test on MDA-MB-435 it was above 100 µM. Also, the TGI with SNB-19 CNS was above 100 µM; in the test on NCI/ADR-RES ovarian, 12.9 µM; in the test with RPMI-8226 leukemia, 14.1 µM; with OVCAR-4 ovarian, 18.6 µM.
Regarding `O=c1cccc(C#Cc2ccccc2)o1`, the GI50 was 4.06 µM with NCI-H522 lung; 16.2 µM in the test on SK-OV-3 ovarian; 2.57 µM in the test on BT-549 breast; 5.05 µM in the test with CAKI-1 renal; 9.58 µM in the test with IGROV1 ovarian; 6.89 µM in the test on MDA-MB-435. The GI50 in the test on SNB-19 CNS was 10.5 µM; with NCI/ADR-RES ovarian, 7.11 µM; with RPMI-8226 leukemia it was 0.698 µM; in the test with OVCAR-4 ovarian, 18.4 µM. Moreover, the TGI was above 40.4 µM in the test on NCI-H522 lung; above 44.8 µM with SK-OV-3 ovarian; 12.2 µM in the test with BT-549 breast; 15.3 µM in the test with CAKI-1 renal; above 87.3 µM in the test with IGROV1 ovarian; 24.9 µM in the test with MDA-MB-435. Further, the TGI with SNB-19 CNS is 37.6 µM; in the test with NCI/ADR-RES ovarian, above 26.6 µM; with RPMI-8226 leukemia, 12.1 µM; in the test with OVCAR-4 ovarian, 44.5 µM.
Regarding `CC(CN)[C@@H]1CC[C@]2(CO)CC[C@]3(C)[C@H](CC[C@@H]4[C@@]5(C)CCC(NCCO)C(C)(C)[C@@H]5CC[C@]43C)[C@@H]12` (some centres undefined), the GI50 in the test with NCI-H522 lung is 1.67 µM; in the test on SK-OV-3 ovarian it was 12.5 µM; with BT-549 breast, 3.77 µM; with CAKI-1 renal it was 4.12 µM; in the test with IGROV1 ovarian, 4.79 µM; in the test on MDA-MB-435, 1.7 µM. Besides, the GI50 in the test with SNB-19 CNS is 1.8 µM; in the test on NCI/ADR-RES ovarian, 6.83 µM; in the test on RPMI-8226 leukemia, 1.89 µM; in the test with OVCAR-4 ovarian, 2.7 µM. In addition, the TGI in the test on NCI-H522 lung was 3.27 µM; with SK-OV-3 ovarian, 25.2 µM; in the test on BT-549 breast, 16.3 µM; with CAKI-1 renal, 16.6 µM; in the test with IGROV1 ovarian, 19.2 µM; in the test with MDA-MB-435 it was 3.14 µM. In addition, the TGI in the test with SNB-19 CNS worked out at 3.54 µM; with NCI/ADR-RES ovarian it was 22.2 µM; with RPMI-8226 leukemia it was 4.5 µM; in the test with OVCAR-4 ovarian it was 9.09 µM.
Turning to `CN1CCN(c2ccc(-c3cnc4c(-c5csc6ccccc56)cnn4c3)cc2)CC1`, the GI50 with NCI-H522 lung was 8.15 µM; in the test on SK-OV-3 ovarian it was above 15 µM; with BT-549 breast, 7.29 µM; in the test on CAKI-1 renal it was 11.3 µM; in the test on IGROV1 ovarian it was 7.55 µM; in the test on MDA-MB-435 it was 11.7 µM. For the same molecule, the GI50 with SNB-19 CNS was 9.25 µM; in the test with NCI/ADR-RES ovarian, 6.2 µM; with RPMI-8226 leukemia it was 2.99 µM; in the test on OVCAR-4 ovarian it was 11.2 µM. Besides, the TGI with NCI-H522 lung, in the test with SK-OV-3 ovarian, in the test with BT-549 breast, in the test with CAKI-1 renal, in the test on IGROV1 ovarian and in the test with MDA-MB-435 was above 15 µM in each case. In addition, the TGI is above 15 µM in the test on SNB-19 CNS, above 15 µM in the test on NCI/ADR-RES ovarian, 9.75 µM with RPMI-8226 leukemia and above 15 µM in the test with OVCAR-4 ovarian.
`Nc1ccn([C@H]2C[C@@H](O)[C@@H](CO)S2)c(=O)n1`: the TGI with NCI-H522 lung, in the test on SK-OV-3 ovarian, with BT-549 breast, in the test on CAKI-1 renal, with IGROV1 ovarian and in the test on MDA-MB-435 was above 100 µM throughout. Besides, the TGI in the test on SNB-19 CNS, with NCI/ADR-RES ovarian, with RPMI-8226 leukemia and with OVCAR-4 ovarian was above 100 µM throughout. In addition, the GI50 with SK-OV-3 ovarian is above 100 µM; with BT-549 breast it was above 100 µM; in the test with CAKI-1 renal it was 8.4 µM; in the test on IGROV1 ovarian, above 100 µM; in the test on MDA-MB-435, 16.9 µM; with SNB-19 CNS it was above 100 µM. The figures for the GI50 with NCI/ADR-RES ovarian, with RPMI-8226 leukemia and in the test on OVCAR-4 ovarian were 19.6 µM, above 100 µM and above 100 µM, respectively.
